Measurements as given in patent US20260158011A1 (Achieve Life Sciences, Inc., priority 2023, published 2026).
Like-named read-outs stand apart in the source and are kept apart here.

Tested on: adults smoking 10+ cigarettes daily
Details: for Quit Rate, End-of-Treatment Week 4 / Quit Rate, Continuous Abstinence Weeks 5 to 8: CO<10 ppm confirmed; for Reduction in cigarettes smoked / Reduction in CO: 25 days; for Drug-placebo difference in quit rate: cytisinicline 3.0 mg TID; for Reduction in CO: expired CO; for Quit Rate, Continuous Abstinence Weeks 5 to 8: off treatment
[1] = cytisine 1.5 mg, downward titration (COM) schedule
[2] = cytisine 3.0 mg TID, listed as CYT
[3] = cytisine 3.0 mg TID, listed as Cytisinicline
[4] = cytisine 3.0 mg, downward titration (COM) schedule

Method: This was a six-arm, multi-center, double-blind, randomized, placebo-controlled study conducted in male or female adults ≥18 years of age, smoking 10+ cigarettes daily, and willing to set a quit date that is 5-7 days after randomization. […] The study also evaluated the effectiveness of a simplified TID dosing schedule for 1.5 mg and an increased dose of 3.0 mg (using both the commercial titration (COM) and simplified TID dosing schedules).
Study treatment started the day after randomization such that study treatment was initiated prior to the quit date, as shown in FIG. 3.
The primary efficacy endpoint for this study was the percent reduction in the number of cigarettes smoked during treatment, which was calculated as follows:
where N=total number of cigarettes smoked, B=number of cigarettes smoked at baseline and D=number of days.
The primary outcome (Cigarette Score) and the main secondary abstinence outcomes were subjected to sensitivity analyses. The main secondary abstinence outcomes were the initial quit rate at Week 4 and continued 4-week abstinence through Week 5 to Week 8, confirmed by expired carbon monoxide (CO) of <10 ppm designated as Cess/W5-8/CO Success.
Carbon monoxide (CO) levels (ppm) were assessed during the study at screening, baseline, end of study treatment intervention (Week 4), and weekly through Week 8 (FIG. 9).
Serum cotinine levels were exploratory and assessed only at screening, Week 4, and Week 8. Reported results for cotinine of <10 ng/mL were transformed to 0 ng/mL prior to statistical analysis.
The primary outcome was based on the number of cigarettes smoked on each day from a diary. The Cigarette Score used the diary data for the planned 25 days while on study treatment. Presented are sensitivity analyses for the comparison of the 3.0 mg TID arm and the pooled placebo arm related to variations on the primary analysis of Cigarette Score. The alternative definition of the Cigarette Score featured cigarettes recorded in the diary after the planned quit period of Days 5-7, that is, from Day 8 onward, instead of from Day 1 onward.
Another alterative analysis was based on re-analyses of the primary Cigarette Score and the above alternative Cigarette Score, with a weight related to the standard error of the mean number of cigarettes estimated from the diary entries. The weight used for each subject was 1/(SE)^2, where SE is the standard error of the mean estimate, and this type of weighting, referred to as inverse variance weighting, is used commonly. This weighting gives greater weight to means that are estimated with a smaller SE. A small modification to this definition of weight was necessary, however. In computing 1/(SE)^2, a specific rule was used when SE=0, specifically when all diary entry values were equal. In these cases, the SE was computed as if one and only one of the recorded values was larger by one. It can be shown that when this modification to the data is made SE=1/N, where N is the number of the subjects daily (days) entries.

In the case of `O=c1cccc2n1C[C@@H]1CNC[C@H]2C1` [cytisine, (−)-Cytisine], the “Quit Rate, End-of-Treatment Week 4” value (cytisine 1.5 mg TID) is reported as 52%, the “Quit Rate, End-of-Treatment Week 4” value [1] is reported as 51% and the “Quit Rate, End-of-Treatment Week 4” value (cytisine 3.0 mg TID) is reported as 54%. The “Quit Rate, End-of-Treatment Week 4” value [2] was 54%, the “Quit Rate, End-of-Treatment Week 4” value [3] was 54% and the “Quit Rate, End-of-Treatment Week 4” value [4] was 50%. For the same compound, the Serum cotinine levels (all cytisine-treated arms, Week 4) was “material reduction in cotinine levels”, the “OR for initial quit rate at Week 4 versus placebo” value (cytisine 1.5 mg TID) was 5.81 and the “OR for prolonged abstinence Week 5 to Week 8 versus placebo” value (cytisine 1.5 mg TID) was 4.33. For the same compound, the “Reduction in cigarettes smoked” value (cytisine 1.5 mg TID) was 79%, the “OR for initial quit rate at Week 4 versus placebo” value (cytisine 1.5 mg, COM schedule) was 5.59 and the “OR for prolonged abstinence Week 5 to Week 8 versus placebo” value (cytisine 1.5 mg, COM schedule) was 3.23. The “Reduction in cigarettes smoked” value [1] was 80%, the “OR for initial quit rate at Week 4 versus placebo” value (cytisine 3.0 mg TID) was 6.31 and the “OR for prolonged abstinence Week 5 to Week 8 versus placebo” value (cytisine 3.0 mg TID) was 5.04. For the same compound, the “Reduction in cigarettes smoked” value (cytisine 3.0 mg TID) was 74%, the “OR for initial quit rate at Week 4 versus placebo” value [3] was 6.3 and the “OR for prolonged abstinence Week 5 to Week 8 versus placebo” value [3] was 5.0. The “OR for initial quit rate at Week 4 versus placebo” value (cytisine 3.0 mg, COM schedule) was 5.38, the “OR for prolonged abstinence Week 5 to Week 8 versus placebo” value (cytisine 3.0 mg, COM schedule) was 2.24 and the “Reduction in cigarettes smoked” value [4] was 78%. The “Drug-placebo difference in quit rate” value (4 weeks = end of treatment) was 38.3%, the “Drug-placebo difference in quit rate” value (4 weeks off treatment (Weeks 5-8)) was 22.2% and the “Reduction in CO” value (cytisine 1.5 mg TID) was 71%. For the same compound, the “Reduction in CO” value [1] was 78%, the “Reduction in CO” value (cytisine 3.0 mg TID) was 80% and the “Reduction in CO” value [4] was 71%. For the same compound, the “Cigarette Score effect estimate (3.0 mg TID versus pooled placebo)” value (not weighted, diary start: Quit Day (8th day after start of intervention)) was −11.8, the “Cigarette Score effect estimate (3.0 mg TID versus pooled placebo)” value (not weighted, diary start: start of intervention (primary outcome)) was −9.5 and the “Quit Rate, Continuous Abstinence Weeks 5 to 8” value (shortened to “Quit Rate … to 8”) (cytisine 1.5 mg TID) was 27%. The “Quit Rate … to 8” value [1] was 22%, the “Quit Rate … to 8” value (cytisine 3.0 mg TID) was 30% and the “Quit Rate … to 8” value [2] was 30%. The “Quit Rate … to 8” value [3] was 30%, the “Quit Rate … to 8” value [4] was 16% and the “Cigarette Score effect estimate (3.0 mg TID versus pooled placebo)” value (weighted analysis, diary start: Quit Day (8th day after start of intervention)) was −15.0. The “Cigarette Score effect estimate (3.0 mg TID versus pooled placebo)” value (weighted analysis, diary start: start of intervention) was −11.8.
